Source: the Kinase Knowledgebase extract (Sharma et al. 2016)
“And” between values parts separate entries of the source, which are not always exact repeats. Equal values may be shown once.

What follows are molecules tested against EGFR (human) (UniProt P00533) (assay: not given). Conditions: hn5.

SMILES	IC50 [nM]
CS(=O)(=O)CCNCc1nc(-c2ccc3ncnc(Nc4ccc5c(cnn5Cc5ccccc5)c4)c3c2)cs1	110
CS(=O)(=O)CCNCc1nc(-c2ccc3ncnc(Nc4ccc(OCc5ccccc5)c(Cl)c4)c3c2)cs1	230
CS(=O)(=O)CCNCc1nc(-c2ccc3ncnc(Nc4ccc(OCc5ccccc5)cc4)c3c2)cs1	1600
CS(=O)(=O)CCNCc1nc(-c2ccc3ncnc(Nc4ccc(F)c(Cl)c4)c3c2)cs1	570

Each molecule was assayed against EGFR (mouse) (UniProt P00533) (assay: not given). Conditions: swiss 3t3 fibroblast.

SMILES	IC50 [nM]
Cn1c(SSc2c(C(=O)Nc3ccccc3)c3cccnc3n2C)c(C(=O)Nc2ccccc2)c2cccnc21	> 25000
COc1ccc2c(C(=O)Nc3ccccc3)c(SSc3c(C(=O)Nc4ccccc4)c4ccc(OC)cc4n3C)n(C)c2c1	> 100000
COc1cccc2c(C(=O)Nc3ccccc3)c(SSc3c(C(=O)Nc4ccccc4)c4cccc(OC)c4n3C)n(C)c12	> 100000
Cn1c(SSc2c(C(=O)Nc3ccccc3)c3ccccc3n2C)c(C(=O)Nc2ccccc2)c2ccccc21	> 100000
CN1C(=S)C(C(=O)Nc2ccccc2)c2ccccc21 (stereo not drawn)	> 100000

Each molecule was assayed against MAPK14 (human) (UniProt Q16539) (assay: Inhibition of Doubly Phosphorylated MAPK14 Kinase Activity (Biochemical Assay)). Conditions: not given.
MAPK14 (human), sequence (Q16539 whole entry, looked up): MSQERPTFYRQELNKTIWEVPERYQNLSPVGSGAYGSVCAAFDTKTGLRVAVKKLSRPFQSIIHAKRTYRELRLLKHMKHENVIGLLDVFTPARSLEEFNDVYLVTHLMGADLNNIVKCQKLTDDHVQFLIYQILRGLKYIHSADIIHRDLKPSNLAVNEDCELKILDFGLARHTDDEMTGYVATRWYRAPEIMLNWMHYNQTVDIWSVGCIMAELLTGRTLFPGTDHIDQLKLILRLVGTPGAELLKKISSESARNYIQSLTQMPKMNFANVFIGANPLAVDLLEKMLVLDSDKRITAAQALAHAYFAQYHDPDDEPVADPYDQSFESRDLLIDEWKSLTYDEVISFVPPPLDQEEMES

SMILES	IC50 [nM]
NC(=O)Cc1cccc(-n2nc(-c3ccccc3F)cc2NC(=O)Nc2cccc(Cl)c2Cl)c1	10
Cc1ccsc1-c1cc(NC(=O)Nc2cccc(Cl)c2Cl)n(-c2cccc(CC(N)=O)c2)n1	86
NC(=O)Cc1cccc(-n2nc(-c3cccc(Cl)c3)cc2NC(=O)Nc2cccc(Cl)c2Cl)c1	58
NC(=O)Cc1cccc(-n2nc(-c3cccc(F)c3)cc2NC(=O)Nc2cccc(Cl)c2Cl)c1	21
NC(=O)Cc1cccc(-n2nc(-c3ccccc3)cc2NC(=O)Nc2cccc(Cl)c2Cl)c1	12

Each molecule was assayed against MAPK14 (murine) (assay: Inhibition of MAPK14 Kinase Assay). Conditions: not given.

SMILES	IC50 [nM]
COc1ccc(C(=O)N2C3CCC2CC(Cc2ccccc2NC(=O)Nc2cc(C(C)(C)C)nn2-c2ccc(C)cc2)C3)c(OC)c1 (stereo not drawn)	6750
COc1ccc(C(=O)N2CCC(Cc3ccc(NC(=O)Nc4cc(C(C)(C)C)nn4-c4ccc(C)cc4)cc3)CC2)c(OC)c1	230
COc1ccc(C(=O)N2CCC(Cc3cccc(NC(=O)Nc4cc(C(C)(C)C)nn4-c4ccc(C)cc4)c3)CC2)c(OC)c1	216
COc1ccc(C(=O)N2CCC(Cc3ccccc3NC(=O)Nc3cc(C(C)(C)C)nn3-c3ccc(C)cc3)CC2)c(OC)c1	500
COc1ccc(C(=O)N2C3CCC2CC(Cc2ccc(NC(=O)Nc4cc(C(C)(C)C)nn4-c4ccc(C)cc4)cc2)C3)c(OC)c1 (stereo not drawn)	1170

What follows are molecules tested against PIK3CA (human) (UniProt P42336) (assay: Assessment of PIK3CA Kinase Activity). Conditions: not given.
PIK3CA (human), sequence (P42336 whole entry, looked up): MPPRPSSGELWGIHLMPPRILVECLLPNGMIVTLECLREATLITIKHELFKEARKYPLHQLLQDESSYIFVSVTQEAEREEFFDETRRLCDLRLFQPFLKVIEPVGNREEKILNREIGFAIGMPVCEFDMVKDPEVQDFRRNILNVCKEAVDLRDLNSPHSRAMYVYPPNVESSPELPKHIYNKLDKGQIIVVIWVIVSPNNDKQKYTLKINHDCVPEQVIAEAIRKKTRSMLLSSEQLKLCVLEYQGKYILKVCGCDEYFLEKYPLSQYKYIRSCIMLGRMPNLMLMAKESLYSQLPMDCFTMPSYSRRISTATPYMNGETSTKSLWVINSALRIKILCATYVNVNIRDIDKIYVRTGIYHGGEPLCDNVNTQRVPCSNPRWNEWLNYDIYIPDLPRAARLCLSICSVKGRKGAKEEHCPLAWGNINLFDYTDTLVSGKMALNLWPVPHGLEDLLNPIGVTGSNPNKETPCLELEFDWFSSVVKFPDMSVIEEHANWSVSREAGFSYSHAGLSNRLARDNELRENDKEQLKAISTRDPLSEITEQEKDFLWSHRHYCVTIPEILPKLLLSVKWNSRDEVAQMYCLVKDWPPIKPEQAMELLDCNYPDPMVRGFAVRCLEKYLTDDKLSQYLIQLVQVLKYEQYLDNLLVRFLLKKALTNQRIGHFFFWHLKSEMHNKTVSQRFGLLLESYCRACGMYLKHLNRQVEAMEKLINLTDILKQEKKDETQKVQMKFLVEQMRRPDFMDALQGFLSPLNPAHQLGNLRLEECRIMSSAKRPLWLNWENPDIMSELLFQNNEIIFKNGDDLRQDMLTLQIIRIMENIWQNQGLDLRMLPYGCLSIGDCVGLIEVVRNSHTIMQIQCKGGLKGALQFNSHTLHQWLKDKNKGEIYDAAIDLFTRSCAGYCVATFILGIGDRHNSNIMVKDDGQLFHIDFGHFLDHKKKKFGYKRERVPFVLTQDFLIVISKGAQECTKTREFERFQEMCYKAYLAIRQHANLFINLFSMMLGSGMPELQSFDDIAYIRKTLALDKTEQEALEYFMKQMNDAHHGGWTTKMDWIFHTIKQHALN

SMILES	IC50 [nM]
Nc1ncc(-c2cnc3ccc(-c4ccc(C(=O)N5CCN(Cc6ccccn6)CC5)cc4)nn23)cc1C(F)(F)F	16
CN1CC2CN(c3cnc4ncc(-c5ccc6oc(N)nc6c5)cc4n3)CC2C1 (stereo not drawn)	< 100

The molecules below were run against EGFR (human) (UniProt P00533) (assay: not given). Conditions: not given.

SMILES	IC50 [nM]
C=C=CCCCCOc1cc2c(Nc3ccc(F)c(Cl)c3)ncnc2cc1OC	65.5
C=C=CCCCOc1cc2c(Nc3cccc(Cl)c3)ncnc2cc1OC	28.5
C=C=CCOc1cc2c(Nc3ccc(F)c(Cl)c3)ncnc2cc1OC	23.8
C=C=CCOc1cc2c(Nc3cccc(Cl)c3)ncnc2cc1OC	16.9

The molecules below were run against PIK3CG (human) (UniProt P48736) (assay: Assessment of PIK3CG Kinase Activity). Conditions: not given.

SMILES	IC50 [nM]
COCCn1c(Cc2nc(N3CCOCC3)cc(=O)[nH]2)nc2ccccc21	> 10000

Molecular target: EGFR (human) (UniProt P00533)
Test: not given
Conditions: not given
Remark: another data set of the same source

SMILES	IC50 [nM]
Cc1ccnc(NS(=O)(=O)c2ccc(Nc3nc(C)c4c(=O)[nH]c(NCc5ccccc5)nc4n3)cc2)n1	6600
Cc1ccnc(NS(=O)(=O)c2ccc(Nc3nc(-c4ccc(O)cc4O)c4c(=O)[nH]c(SCc5ccccc5)nc4n3)cc2)n1	5500
Cc1ccnc(NS(=O)(=O)c2ccc(Nc3nc(C)c4c(=O)[nH]c(Nc5ccc(S(=O)(=O)O)cc5)nc4n3)cc2)n1	8100
Cc1ccnc(NS(=O)(=O)c2ccc(Nc3nc(C)c4c(=O)[nH]c(SCc5ccccc5)nc4n3)cc2)n1	7800
Cc1ccnc(NS(=O)(=O)c2ccc(Nc3nc(C)c4c(=O)[nH]c(Nc5cccc(Cl)c5)nc4n3)cc2)n1	> 10000

These molecules were tested against EGFR (UniProt P00533) (assay: not given). Conditions: not given.

SMILES	IC50 [nM]
O=C1CNCCN(Cc2ccn3ncnc(Nc4ccc5c(cnn5Cc5cccc(F)c5)c4)c23)C1	78
Cc1ccn2ncnc(Nc3ccc4c(cnn4Cc4cccc(F)c4)c3)c12	81
Cc1cn2ncnc(Nc3ccc4c(cnn4Cc4cccc(F)c4)c3)c2c1CN1CCCNCC1	130
COC(=O)C1CCN(Cc2ccn3ncnc(Nc4ccc5c(cnn5Cc5cccc(F)c5)c4)c23)CC1	> 1000
COc1cn2ncnc(Nc3ccc4c(cnn4Cc4cccc(F)c4)c3)c2c1CN1CCCNCC1	190

Each molecule was assayed against EGFR (Human), P00533 [T790M/L858R] (assay: not given). Conditions: not given.
EGFR (Human), P00533 [T790M/L858R], sequence (P00533 whole entry T790M/L858R, looked up): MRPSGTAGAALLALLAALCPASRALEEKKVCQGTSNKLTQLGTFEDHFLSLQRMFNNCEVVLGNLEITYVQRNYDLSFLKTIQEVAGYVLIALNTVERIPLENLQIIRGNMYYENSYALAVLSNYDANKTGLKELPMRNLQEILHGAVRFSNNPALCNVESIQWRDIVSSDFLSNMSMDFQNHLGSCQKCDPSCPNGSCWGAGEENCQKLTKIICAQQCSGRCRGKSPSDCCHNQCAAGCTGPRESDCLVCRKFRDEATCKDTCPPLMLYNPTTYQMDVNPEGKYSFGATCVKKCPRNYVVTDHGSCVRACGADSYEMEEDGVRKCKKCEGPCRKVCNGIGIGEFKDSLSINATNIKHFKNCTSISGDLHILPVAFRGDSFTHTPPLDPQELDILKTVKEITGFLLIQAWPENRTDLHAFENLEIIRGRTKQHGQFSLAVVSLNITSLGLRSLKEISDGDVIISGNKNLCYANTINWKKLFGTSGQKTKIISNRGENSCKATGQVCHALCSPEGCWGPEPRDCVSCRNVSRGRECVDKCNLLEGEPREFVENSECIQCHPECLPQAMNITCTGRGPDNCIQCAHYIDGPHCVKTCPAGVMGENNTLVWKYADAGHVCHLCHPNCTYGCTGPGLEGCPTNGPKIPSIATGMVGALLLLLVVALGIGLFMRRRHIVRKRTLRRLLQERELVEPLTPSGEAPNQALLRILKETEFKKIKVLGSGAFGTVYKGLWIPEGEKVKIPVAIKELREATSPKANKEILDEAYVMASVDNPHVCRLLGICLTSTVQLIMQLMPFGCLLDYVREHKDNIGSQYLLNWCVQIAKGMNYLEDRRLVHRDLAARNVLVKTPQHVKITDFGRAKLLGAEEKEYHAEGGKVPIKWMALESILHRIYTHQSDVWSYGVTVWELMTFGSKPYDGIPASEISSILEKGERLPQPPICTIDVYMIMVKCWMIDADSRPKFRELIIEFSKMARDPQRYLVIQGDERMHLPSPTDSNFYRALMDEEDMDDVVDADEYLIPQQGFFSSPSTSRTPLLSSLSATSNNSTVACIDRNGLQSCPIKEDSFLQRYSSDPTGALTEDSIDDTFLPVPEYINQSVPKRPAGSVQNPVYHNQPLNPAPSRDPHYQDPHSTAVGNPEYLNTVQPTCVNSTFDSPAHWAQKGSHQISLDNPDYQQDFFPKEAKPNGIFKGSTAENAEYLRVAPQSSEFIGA

SMILES	IC50 [nM]
C=CC(=O)N[C@@H]1CCCC[C@H](Nc2nc(Nc3cnn(C)c3)ncc2Cl)C1	10 to 100
C=CC(=O)N[C@H]1CCC[C@@H](Nc2nc(Nc3cnn(C)c3)ncc2Cl)C1	10 to 100
C=CC(=O)Nc1ccc(F)c(Nc2nc(Nc3cn(C)nc3C)ncc2Cl)c1	< 10
C=CC(=O)Nc1cccc(Nc2nc(Nc3cn(C)nc3C)ncc2Cl)n1	10 to 100
C=CC(=O)Nc1cccc(Nc2nc(NCc3cnn(C)c3)ncc2Cl)c1	10 to 100

Molecular target: EGFR (human) (UniProt P00533)
Test: not given
Conditions: not given
Remark: another data set of the same source

SMILES	IC50 [nM]
COc1cc2ncnc(Nc3ccc(F)c(Cl)c3)c2cc1O[C@H]1CCOC1	0.13
COc1cc2ncnc(Nc3ccc(F)c(Cl)c3)c2cc1O[C@H]1CC[C@H](NS(=O)(=O)N(C)C)CC1	1
COc1cc2ncnc(Nc3ccc(F)c(Cl)c3)c2cc1O[C@H]1CC[C@H](NS(=O)(=O)N2CCOCC2)CC1	0.4
CC.COc1cc2ncnc(Nc3ccc(F)c(Cl)c3)c2cc1OC1CCN(S(=O)(=O)N2CCOCC2)CC1	0.1
COc1cc2ncnc(Nc3ccc(F)c(Cl)c3)c2cc1O[C@H]1CC[C@H](NC(=O)N2CCOCC2)CC1	0.3

The molecules below were run against PIK3CD (Human) (UniProt O00329) (assay: Inhibition of PIK3CD Kinase Activity). Conditions: not given.
PIK3CD (Human), sequence (O00329 whole entry, looked up): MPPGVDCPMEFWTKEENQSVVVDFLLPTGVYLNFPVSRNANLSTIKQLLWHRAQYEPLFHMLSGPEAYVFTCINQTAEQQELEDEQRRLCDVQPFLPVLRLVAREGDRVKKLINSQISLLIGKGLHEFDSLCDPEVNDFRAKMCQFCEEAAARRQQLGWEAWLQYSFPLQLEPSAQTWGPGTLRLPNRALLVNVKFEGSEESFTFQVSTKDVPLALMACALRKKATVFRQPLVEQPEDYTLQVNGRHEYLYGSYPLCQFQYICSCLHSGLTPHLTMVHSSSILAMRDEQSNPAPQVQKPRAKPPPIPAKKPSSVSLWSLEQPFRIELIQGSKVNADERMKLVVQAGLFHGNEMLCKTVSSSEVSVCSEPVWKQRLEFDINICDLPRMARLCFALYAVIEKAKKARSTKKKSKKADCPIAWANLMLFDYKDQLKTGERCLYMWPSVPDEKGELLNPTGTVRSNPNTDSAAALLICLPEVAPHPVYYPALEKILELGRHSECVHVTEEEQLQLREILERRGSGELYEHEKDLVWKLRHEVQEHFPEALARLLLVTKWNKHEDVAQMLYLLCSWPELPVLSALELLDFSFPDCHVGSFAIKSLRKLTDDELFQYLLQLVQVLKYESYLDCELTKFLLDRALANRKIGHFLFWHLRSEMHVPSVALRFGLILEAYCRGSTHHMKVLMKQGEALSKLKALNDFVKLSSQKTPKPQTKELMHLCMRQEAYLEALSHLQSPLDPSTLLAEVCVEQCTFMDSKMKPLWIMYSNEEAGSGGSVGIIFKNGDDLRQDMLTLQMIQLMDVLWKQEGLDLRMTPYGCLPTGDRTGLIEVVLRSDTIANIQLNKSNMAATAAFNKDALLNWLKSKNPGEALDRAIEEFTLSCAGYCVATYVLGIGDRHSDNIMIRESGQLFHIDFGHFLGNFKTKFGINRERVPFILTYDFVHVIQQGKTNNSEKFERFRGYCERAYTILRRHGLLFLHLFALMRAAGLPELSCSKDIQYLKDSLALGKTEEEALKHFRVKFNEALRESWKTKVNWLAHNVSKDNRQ

SMILES	IC50 [nM]
C[C@H](Nc1nc(N)ncc1Cl)c1cc2cccc(Cl)c2nc1-c1ccccn1	105

The molecules below were run against MAPK14 (human) (UniProt Q16539) (assay: TNF Inhibition (PBMC)). Conditions: not given.

SMILES	IC50 [nM]
Fc1ccc(-c2[nH]c3ccccc3c2-c2ccncc2)cc1	> 10000
COc1ccc2c(-c3ccncc3)c(-c3ccc(F)cc3)[nH]c2c1	400
Nc1ccc2c(-c3ccncc3)c(-c3ccc(F)cc3)[nH]c2c1	200

These molecules were tested on ERBB2;PIK3CA (human), P42336 [Assessment of Cell Proliferation in MCF7.1 Cells Expressed by ERBB2/ PI3K(E545K)] (assay: Assessment of Cell Proliferation in MCF7.1 Cells Expressed by ERBB2/ PI3K(E545K)). Conditions: not given.
ERBB2;PIK3CA (human), P42336 [Assessment of Cell Proliferation in MCF7.1 Cells Expressed by ERBB2/ PI3K(E545K)], sequence (P42336 whole entry, looked up, stated change not applied): as the sequence (P42336 whole entry, looked up) above

SMILES	EC50
CC(C)(N)c1cc2nc(-c3cnc(N)nc3)nc(N3CCOCC3)c2s1	290 nM
CN(Cc1cc2nc(-c3cnc(N)nc3)nc(N3CCOCC3)c2s1)S(C)(=O)=O	170 nM
CS(=O)(=O)c1cccc(-c2cc3nc(-c4cnc(N)nc4)nc(N4CCOCC4)c3s2)c1	40 nM and 33 nM
Nc1ncc(-c2nc(N3CCOCC3)c3sccc3n2)cn1	430 nM
CC(=O)N(C)Cc1cc2nc(-c3cnc(N)nc3)nc(N3CCOCC3)c2s1	190 nM and 187 nM

These molecules were tested against PIK3CB;PIK3CG;PIK3CD;PIK3CA (human) (UniProt P48736) (assay: Inhibition of PIK3CA/PIK3CB/PIK3CD/PIK3CG Kinase Activity). Conditions: not given.

SMILES	IC50 [nM]
Cc1cccc2cc(CNc3ccnc(C(N)=O)c3)c(-c3ccccc3Cl)nc12	15300
Fc1cnc(Cl)nc1NCc1cc2cccc(Cl)c2nc1-c1ccccc1Cl	3230
COc1c(Cl)ncnc1NCc1cc2cccc(Cl)c2nc1-c1ccccc1	724
Nc1ncc(F)c(NCc2cc3cccc(Cl)c3nc2-c2ccccc2Cl)n1	913
C[C@H](Nc1nc(N)ncc1Cl)c1cc2cccc(Cl)c2nc1-c1ccccn1	106

The molecules below were run against PIK3CB (Human) (UniProt P42338) (assay: Assessment of PIK3CB Kinase Activity). Conditions: not given.
PIK3CB (Human), sequence (P42338 whole entry, looked up): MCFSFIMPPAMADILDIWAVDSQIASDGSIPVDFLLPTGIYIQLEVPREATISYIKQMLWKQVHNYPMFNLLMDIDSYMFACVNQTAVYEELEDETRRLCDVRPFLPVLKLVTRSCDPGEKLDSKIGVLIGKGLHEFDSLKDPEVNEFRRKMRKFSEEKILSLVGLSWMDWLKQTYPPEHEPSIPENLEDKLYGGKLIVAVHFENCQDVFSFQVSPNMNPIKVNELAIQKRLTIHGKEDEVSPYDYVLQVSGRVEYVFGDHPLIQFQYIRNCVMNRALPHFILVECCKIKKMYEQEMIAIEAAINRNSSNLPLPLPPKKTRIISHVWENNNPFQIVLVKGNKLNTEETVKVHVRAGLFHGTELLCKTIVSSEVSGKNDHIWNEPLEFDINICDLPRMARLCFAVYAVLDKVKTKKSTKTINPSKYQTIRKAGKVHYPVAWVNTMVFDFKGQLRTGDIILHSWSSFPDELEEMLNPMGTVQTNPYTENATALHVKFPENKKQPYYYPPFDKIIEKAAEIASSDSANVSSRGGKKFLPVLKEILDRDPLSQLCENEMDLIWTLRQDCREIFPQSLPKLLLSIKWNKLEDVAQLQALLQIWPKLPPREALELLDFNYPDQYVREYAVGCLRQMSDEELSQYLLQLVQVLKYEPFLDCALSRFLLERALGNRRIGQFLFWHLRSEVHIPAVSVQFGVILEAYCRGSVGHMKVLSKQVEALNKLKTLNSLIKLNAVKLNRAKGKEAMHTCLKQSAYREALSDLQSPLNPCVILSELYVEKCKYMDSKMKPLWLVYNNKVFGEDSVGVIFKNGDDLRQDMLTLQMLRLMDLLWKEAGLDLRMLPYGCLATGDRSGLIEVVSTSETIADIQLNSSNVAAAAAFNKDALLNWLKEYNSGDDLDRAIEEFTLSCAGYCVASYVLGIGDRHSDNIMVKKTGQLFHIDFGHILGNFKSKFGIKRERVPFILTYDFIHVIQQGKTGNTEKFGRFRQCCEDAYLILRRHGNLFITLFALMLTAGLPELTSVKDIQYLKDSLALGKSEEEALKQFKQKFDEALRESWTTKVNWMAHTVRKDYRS

SMILES	IC50 [nM]
COCCn1c(Cc2nc(N3CCOCC3)cc(=O)[nH]2)nc2ccccc21	205
Nc1ncc(-c2cnc3ccc(-c4ccc(C(=O)N5CCN(Cc6ccccn6)CC5)cc4)nn23)cc1C(F)(F)F	979
CN1CC2CN(c3cnc4ncc(-c5ccc6oc(N)nc6c5)cc4n3)CC2C1 (stereo not drawn)	100 to 1000
Cc1c(Cn2ccn3c(=O)cc(C4C=COCC4)nc23)cccc1C(F)(F)F (stereo not drawn)	13
CC(Nc1ccc(F)cc1)c1cc(C(=O)N(C)C)cc2c(=O)cc(N3CCO[C@@H](C)C3)oc12 (stereo partly drawn)	64

These molecules were tested against CDK2 (human) (UniProt P24941) (assay: Enzyme Assay). Conditions: not given.

SMILES	IC50 [nM]
Cc1ccnc(NS(=O)(=O)c2ccc(Nc3nc(C)c4c(=O)[nH]c(Nc5ccc(S(=O)(=O)O)cc5)nc4n3)cc2)n1	> 10000
Cc1ccnc(NS(=O)(=O)c2ccc(Nc3nc(C)c4c(=O)[nH]c(Nc5cccc(Cl)c5)nc4n3)cc2)n1	50

These molecules were tested against PIK3CG (human) (UniProt P48736) (assay: Enzyme Assay). Conditions: not given.

SMILES	IC50 [nM]
Nc1ncc(-c2cnc3ccc(-c4ccc(C(=O)N5CCN(Cc6ccccn6)CC5)cc4)nn23)cc1C(F)(F)F	1270

These molecules were tested against EGFR (human) (UniProt P00533) (assay: not given). Conditions: a431.

SMILES	IC50 [nM]
CC(C)c1ccc(Nc2nc(NC(=O)C(C)(C)C)nc3[nH]c4cccc(Cl)c4c23)cc1	> 250000
CC(C)(C)C(=O)Nc1nc(Nc2cccc(F)c2)c2c(n1)[nH]c1cccc(Cl)c12	> 250000
COc1cccc(Nc2nc(N)nc3[nH]c4cccc(Cl)c4c23)c1	167000
CC(C)(C)C(=O)Nc1nc(Nc2ccc(Cl)cc2)c2c(n1)[nH]c1cccc(Cl)c12	55000
Nc1nc(Nc2ccc(Cl)cc2)c2c(n1)[nH]c1cccc(Cl)c12	44100

What follows are molecules tested against PIK3CA (human) (UniProt P42336) (assay: Inhibition of PIK3CA Kinase Activity). Conditions: not given.

SMILES	IC50 [nM]
COCCn1c(Cc2nc(N3CCOCC3)cc(=O)[nH]2)nc2ccccc21	> 10000

Each molecule was assayed against PIK3CD (Human) (UniProt O00329) (assay: Assessment of PIK3CD Kinase Activity). Conditions: not given.

SMILES	IC50 [nM]
COCCn1c(Cc2nc(N3CCOCC3)cc(=O)[nH]2)nc2ccccc21	270
Nc1ncc(-c2cnc3ccc(-c4ccc(C(=O)N5CCN(Cc6ccccn6)CC5)cc4)nn23)cc1C(F)(F)F	93
CN1CC2CN(c3cnc4ncc(-c5ccc6oc(N)nc6c5)cc4n3)CC2C1 (stereo not drawn)	100 to 1000
Cc1c(Cn2ccn3c(=O)cc(C4C=COCC4)nc23)cccc1C(F)(F)F (stereo not drawn)	40
